Holding throughout (assay): ERK1/2 phosphorylation
Common to all, as to format: cell-based

For one assay, the target named is T1, hCTR D373A (Homo sapiens, UniProt P30988, D373A).
T1 construct: c-Myc (N); expressed in transfected cells
T1 sequence (P30988 25-474 D373A): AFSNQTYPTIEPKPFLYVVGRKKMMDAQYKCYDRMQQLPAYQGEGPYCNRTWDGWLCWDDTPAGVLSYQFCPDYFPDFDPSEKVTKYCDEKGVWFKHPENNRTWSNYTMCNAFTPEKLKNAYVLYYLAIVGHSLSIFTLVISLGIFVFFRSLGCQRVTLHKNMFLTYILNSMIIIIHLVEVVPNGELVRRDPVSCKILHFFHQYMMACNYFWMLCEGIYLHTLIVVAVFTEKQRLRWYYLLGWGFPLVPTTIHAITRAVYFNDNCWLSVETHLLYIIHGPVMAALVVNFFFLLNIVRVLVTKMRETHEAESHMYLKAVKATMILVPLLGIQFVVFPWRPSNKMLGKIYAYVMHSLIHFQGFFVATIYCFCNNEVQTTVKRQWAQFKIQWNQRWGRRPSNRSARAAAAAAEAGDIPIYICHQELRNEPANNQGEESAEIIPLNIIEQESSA
The following applies: CV1-FlpIn cells, mean ± S.E.M.; for Emax: pERK maximal response. In a few lines:
(§1)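 First, cells (2.5 × 10^4 per well) were plated and left overnight. Agonist concentration-response data were then scaled to the peak signal given by 10% FBS at 6 min. Finally, a 3-parameter logistic equation yielded EC50 and Emax.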

For another assay, the target named is T2, hCTR Y374A (Homo sapiens, UniProt P30988, Y374A).
T2 construct: c-Myc (N); expressed in transfected cells
T2 sequence (P30988 25-474 Y374A): T1 sequence (P30988 25-474 D373A) with A349D, Y350A
The following applies: CV1-FlpIn cells, mean ± S.E.M.; for Emax: pERK maximal response; for EC50: pERK, three-parameter logistic fit. In outline: as §1

The target of the next assay is T3, hCTR M367A (Homo sapiens, UniProt P30988, M367A).
T3 construct: c-Myc (N); expressed in transfected cells
T3 sequence (P30988 25-474 M367A): T1 sequence (P30988 25-474 D373A) with M343A, A349D
The note with it: CV1-FlpIn cells, mean ± S.E.M.; for Emax: pERK maximal response; for EC50: pERK, three-parameter logistic fit. In outline:
as §1

The target of the next assay is T4, hCTR F359A (Homo sapiens, UniProt P30988, F359A).
T4 construct: expressed in transfected cells
T4 sequence (P30988 25-474 F359A): T1 sequence (P30988 25-474 D373A) with F335A, A349D
The note with it: for Emax: read-out: Emax (% WT); for EC50: pERK, hCTR F359A, CV1-FlpIn cells, three-parameter logistic fit, mean ± S.E.M. In outline: as §1

In a further assay the target is T5, hCTR F356A (Homo sapiens, UniProt P30988, F356A).
T5 construct: c-Myc (N); expressed in transfected cells
T5 sequence (P30988 25-474 F356A): T1 sequence (P30988 25-474 D373A) with F332A, A349D
The following applies: CV1-FlpIn cells, mean ± S.E.M.; for Emax: pERK maximal response; for EC50: pERK, three-parameter logistic fit. In outline: as §1

Usually Emax stands for the greatest response seen or fitted, relative to the assay's reference. What is called EC50 is the concentration that produces a half-maximal response. Read a low EC50 as higher potency in that assay.

Changes are numbered by the printed parent chain. Where a SMILES comes first, the peptide text is derived from it. Bridges are numbered along the chain shown (N, C = ends).

For `CC[C@H](C)[C@H](NC(=O)[C@H](C)NC(=O)[C@@H](NC(=O)[C@H](CCC(N)=O)NC(=O)[C@@H]1CCCN1C(=O)[C@H](Cc1ccccc1)NC(=O)[C@@H](NC(=O)[C@H](Cc1c[nH]cn1)NC(=O)[C@H](Cc1ccccc1)NC(=O)[C@H](CCCCN)NC(=O)[C@H](CC(N)=O)NC(=O)[C@H](Cc1ccccc1)NC(=O)[C@H](CC(=O)O)NC(=O)[C@H](CCC(N)=O)NC(=O)[C@@H](NC(=O)[C@H](Cc1ccc(O)cc1)NC(=O)[C@@H](NC(=O)CNC(=O)[C@H](CC(C)C)NC(=O)[C@H](CCSC)NC(=O)[C@@H]1CSSC[C@H](N)C(=O)NCC(=O)N[C@@H](CC(N)=O)C(=O)N[C@@H](CC(C)C)C(=O)N[C@@H](CO)C(=O)N[C@@H]([C@@H](C)O)C(=O)N1)[C@@H](C)O)[C@@H](C)O)[C@@H](C)O)[C@@H](C)O)C(=O)NCC(=O)N[C@H](C(=O)NCC(=O)N[C@@H](C)C(=O)N1CCC[C@H]1C(N)=O)C(C)C` [hCT], the Emax at hCTR D373A was found to be 71 ± 7%; at hCTR Y374A it was 94 ± 4%; at hCTR M367A it was 127 ± 7%; at hCTR F359A it was 153 ± 8%; on hCTR F356A, 43 ± 3%.

Take `CC(C)C[C@H](NC(=O)CNC(=O)[C@H](C)NC(=O)[C@H](CC(C)C)NC(=O)[C@H](CCCNC(=N)N)NC(=O)[C@H](Cc1cnc[nH]1)NC(=O)[C@@H](NC(=O)[C@@H](NC(=O)[C@@H]1CSSC[C@H](NC(=O)[C@H](C)N)C(=O)N[C@@H](CC(=O)O)C(=O)N[C@@H]([C@@H](C)O)C(=O)N[C@@H](C)C(=O)N[C@@H]([C@@H](C)O)C(=O)N1)C(C)C)[C@@H](C)O)C(=O)N[C@@H](CC(C)C)C(=O)N[C@@H](CO)C(=O)N[C@@H](CCCNC(=N)N)C(=O)N[C@@H](CO)C(=O)NCC(=O)NCC(=O)N[C@H](C(=O)N[C@H](C(=O)N[C@@H](CCCCN)C(=O)N[C@@H](CC(N)=O)C(=O)N[C@@H](CC(N)=O)C(=O)N[C@@H](Cc1ccccc1)C(=O)N[C@H](C(=O)N1CCC[C@H]1C(=O)N[C@H](C(=O)N[C@@H](CC(N)=O)C(=O)N[C@H](C(=O)NCC(=O)N[C@@H](CO)C(=O)N[C@@H](CCCCN)C(=O)N[C@@H](C)C(=O)N[C@@H](Cc1ccccc1)C(N)=O)C(C)C)[C@@H](C)O)C(C)C)C(C)C)C(C)C` [hαCGRP]: the Emax worked out at 49 ± 8% at hCTR Y374A, 78 ± 12% on hCTR M367A and 68 ± 11% at hCTR F356A. Further, the EC50 at hCTR Y374A is 61.7 nM; at hCTR M367A, 107 nM; on hCTR F359A it was 6.31 nM; on hCTR F356A, 182 nM.

On to `CSCC[C@H](NC(=O)CNC(=O)[C@H](CO)NC(=O)[C@H](Cc1ccccc1)NC(=O)[C@H](CCCNC(=N)N)NC(=O)[C@H](Cc1c[nH]cn1)NC(=O)[C@H](Cc1ccccc1)NC(=O)[C@H](CC(N)=O)NC(=O)[C@H](CC(N)=O)NC(=O)[C@H](CC(C)C)NC(=O)[C@H](CC(N)=O)NC(=O)[C@H](CCCNC(=N)N)NC(=O)[C@H](Cc1c[nH]c2ccccc12)NC(=O)[C@H](Cc1ccc(O)cc1)NC(=O)[C@H](C)NC(=O)[C@H](CO)NC(=O)[C@H](CC(C)C)NC(=O)[C@@H](NC(=O)[C@@H]1CSSC[C@H](N)C(=O)N[C@@H](CO)C(=O)N[C@@H](CC(N)=O)C(=O)N[C@@H](CC(C)C)C(=O)N[C@@H](CO)C(=O)N[C@@H]([C@@H](C)O)C(=O)N1)C(C)C)C(=O)NCC(=O)N[C@@H](Cc1ccccc1)C(=O)NCC(=O)N1CCC[C@H]1C(=O)N[C@@H](CCC(=O)O)C(=O)N[C@H](C(=O)N1CCC[C@H]1C(N)=O)[C@@H](C)O` [pCT] (H-CSNLSTCVLSAYWRNLNNFHRFSGMGFGPETP-NH2; disulfide 1-7), for which the Emax at hCTR D373A amounted to 32 ± 4%; at hCTR Y374A it was 105 ± 8%; at hCTR M367A, 172 ± 10%; on hCTR F356A, 57 ± 6%. In addition, the EC50 on hCTR D373A (pERK, three-parameter logistic fit) is 4.9 nM; at hCTR Y374A, 2.69 nM; on hCTR M367A, 2.75 nM; at hCTR F359A, 6.31 nM; on hCTR F356A, 4.47 nM.

Turning to `CC(C)C[C@H](NC(=O)[C@H](CC(N)=O)NC(=O)[C@H](CC(N)=O)NC(=O)[C@H](CO)NC(=O)[C@H](CO)NC(=O)[C@H](CCCNC(=N)N)NC(=O)[C@@H](NC(=O)[C@H](CC(C)C)NC(=O)[C@H](Cc1ccccc1)NC(=O)[C@H](CC(N)=O)NC(=O)[C@H](C)NC(=O)[C@H](CC(C)C)NC(=O)[C@H](CCCNC(=N)N)NC(=O)[C@H](CCC(N)=O)NC(=O)[C@@H](NC(=O)[C@H](C)NC(=O)[C@@H]1CSSC[C@H](NC(=O)[C@@H](N)CCCCN)C(=O)N[C@@H](CC(N)=O)C(=O)N[C@@H]([C@@H](C)O)C(=O)N[C@@H](C)C(=O)N[C@@H]([C@@H](C)O)C(=O)N1)[C@@H](C)O)C(C)C)C(=O)NCC(=O)N1CCC[C@H]1C(=O)N[C@H](C(=O)N[C@@H](CC(C)C)C(=O)N1CCC[C@H]1C(=O)N1CCC[C@H]1C(=O)N[C@H](C(=O)N[C@@H](CC(N)=O)C(=O)N[C@H](C(=O)NCC(=O)N[C@@H](CO)C(=O)N[C@@H](CC(N)=O)C(=O)N[C@H](C(=O)N[C@@H](Cc1ccc(O)cc1)C(N)=O)[C@@H](C)O)C(C)C)[C@@H](C)O)C(C)C` [rAmy], the Emax is 61 ± 5% at hCTR Y374A, 77 ± 5% at hCTR M367A, 58 ± 11% on hCTR F359A and 41 ± 5% at hCTR F356A.

For `CC(C)C[C@H](NC(=O)[C@H](CCCCN)NC(=O)CNC(=O)[C@H](CC(C)C)NC(=O)[C@@H](NC(=O)[C@@H]1CSSC[C@H](N)C(=O)N[C@@H](CO)C(=O)N[C@@H](CC(N)=O)C(=O)N[C@@H](CC(C)C)C(=O)N[C@@H](CO)C(=O)N[C@@H]([C@@H](C)O)C(=O)N1)C(C)C)C(=O)N[C@@H](CO)C(=O)N[C@@H](CCC(N)=O)C(=O)N[C@@H](CCC(=O)O)C(=O)N[C@@H](CC(C)C)C(=O)N[C@@H](Cc1c[nH]cn1)C(=O)N[C@@H](CCCCN)C(=O)N[C@@H](CC(C)C)C(=O)N[C@@H](CCC(N)=O)C(=O)N[C@H](C(=O)N[C@@H](Cc1ccc(O)cc1)C(=O)N1CCC[C@H]1C(=O)N[C@@H](CCCNC(=N)N)C(=O)N[C@H](C(=O)N[C@@H](CC(N)=O)C(=O)N[C@H](C(=O)NCC(=O)N[C@@H](CO)C(=O)NCC(=O)N[C@H](C(=O)N1CCC[C@H]1C(N)=O)[C@@H](C)O)[C@@H](C)O)[C@@H](C)O)[C@@H](C)O` [sCT], the Emax at hCTR D373A turned out to be 103 ± 11%; on hCTR Y374A it was 99 ± 5%; at hCTR M367A it was 130 ± 4%; at hCTR F359A, 186 ± 7%; on hCTR F356A, 72 ± 5%.

These data come from publication PMC5908784, “Extracellular loops 2 and 3 of the calcitonin receptor selectively modify agonist binding and efficacy” (Biochemical Pharmacology, 2018).
